System: DU145 cells
Assay: Antiproliferative assay in DU145 cells, WST-1 cell proliferation assay, 96 hours (GI50)
Type: cell-based
Details: 96 hours post-treatment, triplicate, read-out: DU-145 GI50
Protocol: Antiproliferative assays. DU145 cells were seeded into 96 well microtiter plates (5000 cells/well) and treated with […] of compounds or with vehicle control. At 96 hours post-treatment, live cell counts were determined by WST-1 cell proliferation assay (Roche, Penzberg, Germany), as per manufacturer's instructions. Viability results were expressed as a percentage of mean control values resulting in the calculation of the 50% growth inhibition (GI50). All experiments were performed in triplicate.

Row | Compound | GI50
1 | COc1cccc(CN2CCc3cc(OS(N)(=O)=O)c(OC)cc3C2)c1 [compound 72, 7-Methoxy-2-(3-methoxybenzyl)-6-O-sulfamoyl-1,2,3,4-tetrahydroisoquinoline] | < 10 µM
2 | COc1ccc(CN2CCc3cc(OS(N)(=O)=O)c(OC)cc3C2)cc1 [compound 73, 7-Methoxy-2-(4-methoxybenzyl)-6-O-sulfamoyl-1,2,3,4-tetrahydroisoquinoline] | 50 to 100 µM
3 | COc1cc2c(cc1OS(N)(=O)=O)CCN(Cc1ccccc1)C2 [compound 74, 2-Benzyl-7-methoxy-6-O-sulfamoyl-1,2,3,4-tetrahydroisoquinoline] | 50 to 100 µM
4 | COc1ccccc1CN1CCc2cc(OS(N)(=O)=O)c(OC)cc2C1 [compound 75, 7-Methoxy-2-(2-methoxybenzyl)-6-O-sulfamoyl-1,2,3,4-tetrahydroisoquinoline] | < 10 µM
5 | COc1cc(CN2CCc3cc(OS(N)(=O)=O)c(OC)cc3C2)cc(OC)c1 [compound 76, 2-(3,5-Dimethoxybenzyl)-7-methoxy-6-O-sulfamoyl-1,2,3,4-tetrahydroisoquinoline] | < 10 µM
6 | COc1cc2c(cc1OS(N)(=O)=O)CCN(Cc1cccc(Oc3ccccc3)c1)C2 [compound 78, 7-Methoxy-2-(3-phenoxybenzyl)-6-O-sulfamoyl-1,2,3,4-tetrahydroisoquinoline] | 10 to 50 µM
7 | COc1cc2c(cc1OS(N)(=O)=O)CCN(Cc1cccc(OS(N)(=O)=O)c1)C2 [compound 79, 7-Methoxy-2-(3-(O-sulfamoyl)benzyl)-6-O-sulfamoyl-1,2,3,4-tetrahydroisoquinoline] | 10 to 50 µM
8 | CCOc1cccc(CN2CCc3cc(OS(N)(=O)=O)c(OC)cc3C2)c1 [compound 80, 2-(3-Ethoxybenzyl)-7-methoxy-6-O-sulfamoyl-1,2,3,4-tetrahydroisoquinoline] | < 10 µM
9 | COc1cc2c(cc1OS(N)(=O)=O)CCN(Cc1cccc(C(C)=O)c1)C2 [compound 82, 2-(3-Acetylbenzyl)-7-methoxy-6-O-sulfamoyl-1,2,3,4-tetrahydroisoquinoline] | < 10 µM
10 | COc1cc2c(cc1OS(N)(=O)=O)CCN(Cc1cccc(OC(C)=O)c1)C2 [compound 87, 2-(3-Acetoxybenzyl)-7-methoxy-6-O-sulfamoyl-1,2,3,4-tetrahydroisoquinoline] | 50 to 100 µM
11 | COc1cc2c(cc1OS(N)(=O)=O)CCN(Cc1ccc(OC)c(OC)c1OC)C2 [compound 93, 7-Methoxy-2-(2,3,4-trimethoxybenzyl)-6-O-sulfamoyl-1,2,3,4-tetrahydroisoquinoline] | 10 to 50 µM
12 | COc1ccc(OC)c(CN2CCc3cc(OS(N)(=O)=O)c(OC)cc3C2)c1 [compound 94, 7-Methoxy-2-(2,5-dimethoxybenzyl)-6-O-sulfamoyl-1,2,3,4-tetrahydroisoquinoline] | < 10 µM
13 | COc1cc(OC)c(OC)cc1CN1CCc2cc(OS(N)(=O)=O)c(OC)cc2C1 [compound 95, 7-Methoxy-2-(2,4,5-trimethoxybenzyl)-6-O-sulfamoyl-1,2,3,4-tetrahydroisoquinoline] | < 10 µM
14 | COc1cc2c(cc1OS(N)(=O)=O)CCN(Cc1cccc(Cl)c1)C2 [compound 101, 2-(3-Chlorobenzyl)-7-methoxy-6-O-sulfamoyl-1,2,3,4-tetrahydroisoquinoline] | < 10 µM
15 | COc1cccc(C(=O)N2CCc3cc(OS(N)(=O)=O)c(OC)cc3C2)c1 [compound 123, 7-Methoxy-2-(3-methoxybenzoyl)-6-O-sulfamoyl-1,2,3,4-tetrahydroisoquinoline] | < 10 µM
16 | COc1ccc(C(=O)N2CCc3cc(OS(N)(=O)=O)c(OC)cc3C2)cc1 [compound 124, 7-Methoxy-2-(4-methoxybenzoyl)-6-O-sulfamoyl-1,2,3,4-tetrahydroisoquinoline] | < 10 µM

Other lines, results leading:

Row | GI50 | Compound
17 | 10 to 50 µM | COc1cc2c(cc1OS(N)(=O)=O)CCN(Cc1cccc(C)c1)C2 [compound 77, 7-Methoxy-2-(3-methylbenzyl)-6-O-sulfamoyl-1,2,3,4-tetrahydroisoquinoline]
18 | > 100 µM | COc1cc2c(cc1OS(N)(=O)=O)CCN(Cc1cccc(NC(C)=O)c1)C2 [compound 85, 2-(3-Acetamidobenzyl)-7-methoxy-6-O-sulfamoyl-1,2,3,4-tetrahydroisoquinoline]
19 | < 10 µM | COc1cc2c(cc1OS(N)(=O)=O)CCN(Cc1cc(OC)c(OC)c(OC)c1)C2 [compound 90, 7-Methoxy-2-(3,4,5-trimethoxybenzyl)-6-O-sulfamoyl-1,2,3,4-tetrahydroisoquinoline]
20 | < 10 µM | COc1cc2c(cc1OS(N)(=O)=O)CCN(Cc1cccc(OC)c1OC)C2 [compound 91, 7-Methoxy-2-(2,3-dimethoxybenzyl)-6-O-sulfamoyl-1,2,3,4-tetrahydroisoquinoline]
21 | < 10 µM | COc1ccc(CN2CCc3cc(OS(N)(=O)=O)c(OC)cc3C2)cc1OC [compound 92, 7-Methoxy-2-(3,4-dimethoxybenzyl)-6-O-sulfamoyl-1,2,3,4-tetrahydroisoquinoline]
22 | 50 to 100 µM | COc1cc2c(cc1OS(N)(=O)=O)CCN(Cc1cccc(O)c1)C2 [compound 97, 2-(3-Hydroxybenzyl)-7-methoxy-6-O-sulfamoyl-1,2,3,4-tetrahydroisoquinoline]
23 | 50 to 100 µM | COc1cc2c(cc1OS(N)(=O)=O)CCN(Cc1ccc(C#N)cc1)C2 [compound 99, 2-(4-Cyanobenzyl)-7-methoxy-6-O-sulfamoyl-1,2,3,4-tetrahydroisoquinoline]
24 | < 10 µM | COc1cc2c(cc1OS(N)(=O)=O)CCN(Cc1cccc([N+](=O)[O-])c1)C2 [compound 100, 7-Methoxy-2-(3-nitrobenzyl)-6-O-sulfamoyl-1,2,3,4-tetrahydroisoquinoline]
25 | < 10 µM | COc1cc2c(cc1OS(N)(=O)=O)CCN(Cc1cccc(OC(F)(F)F)c1)C2 [compound 102, 7-Methoxy-2-(3-trifluoromethoxybenzyl)-6-O-sulfamoyl-1,2,3,4-tetrahydroisoquinoline]
26 | < 10 µM | COc1cc2c(cc1OS(N)(=O)=O)CCN(Cc1cccc(OC(C)C)c1)C2 [compound 104, 2-(3-Isopropoxybenzyl)-7-methoxy-6-O-sulfamoyl-1,2,3,4-tetrahydroisoquinoline]
27 | 10 to 50 µM | COc1cc2c(cc1OS(N)(=O)=O)CCN(C(=O)c1ccccc1OC)C2 [compound 122, 7-Methoxy-2-(2-methoxybenzoyl)-6-O-sulfamoyl-1,2,3,4-tetrahydroisoquinoline]

Same assay, conditions: Homo sapiens, DU-145, 96 hours post-treatment, triplicate

Row | GI50 | Compound
28 | 10 to 50 µM | COc1ccc(OC)c(CN2CCc3cc(OCc4ccccc4)c(OC)cc3C2)c1 [compound 21, 6-Benzyloxy-7-methoxy-2-(2,5-dimethoxybenzyl)-1,2,3,4-tetrahydroisoquinoline]
29 | > 100 µM | COc1cc2c(cc1O)CCN(Cc1cccc(C)c1)C2 [compound 44, 6-Hydroxy-7-methoxy-2-(3-methylbenzyl)-1,2,3,4-tetrahydroisoquinoline]
30 | > 100 µM | COc1cc2c(cc1O)CCN(Cc1cccc(NC(C)=O)c1)C2 [compound 50, 6-Hydroxy-7-methoxy-2-(3-acetamidobenzyl)-1,2,3,4-tetrahydroisoquinoline]
31 | 10 to 50 µM | COc1ccc(C(=O)N2CCc3cc(OCc4ccccc4)ccc3C2)cc1OC [compound 109, 6-Benzyloxy-2-(3,4-Dimethoxybenzoyl)-1,2,3,4-tetrahydroisoquinoline]
32 | < 10 µM | COc1cc(OC)cc(C(=O)N2CCc3cc(O)c(OC)cc3C2)c1 [compound 119, 2-(3,5-Dimethoxybenzoyl)-6-hydroxy-7-methoxy-1,2,3,4-tetrahydroisoquinoline]
